Experimental data taken from PMC9094630, “Epidemiological Impact of GII.17 Human Noroviruses Associated With Attachment to Enterocytes” (Frontiers in Microbiology, 2022).

Biological target: T1, GII.17 Kawasaki 308 variant VLP (E12905) (Norovirus GII.17, UniProt A0A0S2ZZA3)
T1 construct: gene VP1
Settings: ligand as BSA conjugate (about 20 per BSA, multivalent), immobilized; VLP 2 ng/ul; HBS pH 7.4, 25 C; also ELISA (Figure 4A)

CC(=O)N[C@H]1[C@H](O[C@H]2[C@@H](O)[C@@H](CO)O[C@@H](O[C@H]3[C@H](O)[C@@H](O)C(O)O[C@@H]3CO)[C@@H]2O)O[C@H](CO)[C@@H](O)[C@@H]1O[C@@H]1O[C@H](CO)[C@H](O)[C@H](O)[C@H]1O[C@@H]1O[C@@H](C)[C@@H](O)[C@@H](O)[C@@H]1O (stereo partly shown) [lacto-N-fucopentaose I]
GII.17 variant / Kawasaki 308: 255 RU
